The nature of data set [1]: Cytotoxicity assay (MTS) on Vero cells. To be noted: African green monkey. Format: cell-based, African green monkey. The procedure: (§1) For cytotoxicity and antiviral assays cells were grown in Dulbeccoʼs Modified Eagleʼs growth Medium ( DMEM; Sigma, USA) supplemented with 2% of fetal bovine serum (FBS; Gibco, Germany), 100 μg/mL of streptomycin, 100 UI/mL of penicillin and 0.25 μg/mL amphotericin B ( Gibco, Germany) and 0.14% (v/v) sodium bicarbonate. All the cells were cultured at 37°C in a humidified atmosphere supplied with 5% CO2.
(§2) The Vero cells were seeded onto a 96-well plate at a concentration of 3.5×10^5 Vero cells per mL and a volume of 100 μL per well. Following 24 h incubation at 37 °C, a confluent cell monolayer was confirmed and cell media was removed. Test compounds were serially diluted with the culture medium supplemented with 2% serum to reach the different concentrations. Negative control dilution of DMSO at 0.1 % was also included. An aliquot of 100 μL/well of each diluted compound or DMSO was added to the plates in triplicate. After incubation at 37 °C with 5% CO2 for 3 days, MTS (Cell Titer 96; Promega, USA) was added to each well with a volume of 20 μL. The trays were further incubated for 2 h to allow MTS production. The absorbances were determined with an ELISA reader (Stata Fax 2100, USA) at a test wavelength of 490 nm. Data were calculated as the percentage of inhibition using the following formula: inhibition % =[100 – ( At/ As) × 100]%. At and As refer to the absorbances of the test substances and the solvent control, respectively. CC50 values, defined as the concentration of 50% cellular cytotoxicity (CC50) of test compounds ([7], [8]).

In data set [2] the test system is HSV-1. The experiment in a line: Antiviral assay using MTS method (HSV-1 infected Vero cells). Format: cell-based, Herpes simplex virus type 1 (HSV-1, strain KOS). The settings on record: for Selectivity index (SI) = CC50/EC50: HSV-1, CC50 on Vero cells / EC50; for EC50: read-out: EC50 ±SEM (concentration producing 50% inhibition of virus induced cytopathic effects). (Tetrazolium dyes change colour on reduction, which living cells bring about.)

Another data set concerns Vero cells. The experiment in a line: Cytotoxicity assay (MTS) on Vero cells. The class given is cell-based, African green monkey. The settings on record: Vero cells, MTS, 3 days incubation, n=3. On the procedure:
as §1, §2

The test system of data set [3] is HSV-1. The experiment in a line: Time-course anti-virus analysis (MTS, addition pre-, co- or post-infection). The class given is cell-based, Herpes simplex virus type 1 (HSV-1, strain KOS). To be noted: post-infection; 1, 10, 100 μg/mL; added 1 h before to 24 h after infection; MTS after 3 days. The procedure: Different non-cytotoxic concentrations (≤ CC50 values) of test compounds were added to culture cells in triplicate at different times pre-infection or post-infection. HSV-1(10 TCID50 per well) was inoculated onto confluent monolayers of Vero cells for 2 h. After 3 days, MTS test and antiviral activity were carried out as previously described ([3]).
Inhibition was evaluated by MTS assay after 3 days of infection and expressed as percentage inhibition.
Figure 3 Inhibitory effect of test compounds at different concentrations (1, 10, 100 μg/mL) at various times pre-infection , co-infection and post-infection of herpesvirus (HSV-1) to Vero cells. a) betulin, and b) (3β,23E)-Cycloarta-23-ene-3,25-diol were added with the HSV-1 infected Vero cells at various times period like pre-infection (− 1 h), co-infection (0 h) or post-infection( 2-24 h). After 3 days of incubation at 37°C, inhibition was evaluated by MTS assay and expressed as the inhibition percentage. Each point represents the mean of three independent experiments

Setting [4] is: CC50 ±SEM (50% cytotoxic concentration on vero cells).
[5] abbreviates: Human alphaherpesvirus 1, Vero, 72 h.

Converted amounts (≈) assume the structure as drawn. Read-outs that look alike come from different tables or passages of the source. A value given as a limit tells only on which side of the number the result lay.

`Nc1nc2c(ncn2COCCO)c(=O)[nH]1` [Acyclovir, reference compound] came in with a CC50 at 3 days in data set [1] (setting [4]) of 128 ± 0.215 µg/mL (≈ 568 µM). In addition, the “Selectivity index (SI) = CC50/EC50” value in the data set with HSV-1 [2] worked out at 42.66. For the same compound, the EC50 in the data set on HSV-1 [2] (Human alphaherpesvirus 1, 72 h, HSV-1 in Vero cells, MTS, 3 days, three separate experiments) was found to be 3 µg/mL (≈ 13.3 µM).

As for `C=C(C)[C@@H]1CC[C@]2(CO)CC[C@]3(C)[C@H](CC[C@@H]4[C@@]5(C)CC[C@H](O)C(C)(C)[C@@H]5CC[C@]43C)[C@@H]12` [Betulin, lup-20(29)-ene-3β,28-diol], the CC50 at 3 days in data set [1] (Vero cells, MTS, 3 days incubation, n=3, read-out: CC50 ±SEM (50% cytotoxic concentration on vero cells)) was found to be 660.72 ± 0.072 µg/mL (≈ 1490 µM). The “CC50 ±SEM (50% cytotoxic concentration on vero cells)” value with Vero cells worked out at 660.72 ± 0.072 µg/mL (≈ 1490 µM). Also, the “Selectivity index (SI) = CC50/EC50” value with HSV-1 [2] is 7.83; in the data set on HSV-1 [2] (listed as betulin), 7.831. Further, the EC50 in the data set with HSV-1 [2] (setting [5]) amounted to 84.37 ± 0.018 µg/mL (≈ 191 µM). Further, the “Time of compound addition giving the highest inhibition against HSV-1 infection” value in the data set with HSV-1 [3] is reported as at most 2.0 h.

As to `C[C@H](C/C=C/C(C)(C)O)[C@H]1CC[C@@]2(C)C3CCC4C(C)(C)[C@@H](O)CC[C@@]45C[C@@]35CC[C@]12C` (stereo partly drawn) [(3β,23E)-Cycloarta-23-ene-3,25-diol, Cycloart-23E-ene-3β,25-diol], the CC50 at 3 days in data set [1] (setting [4]) worked out at 1089.2 ± 0.25 µg/mL (≈ 2460 µM). In addition, in the data set on HSV-1 [2], the “Selectivity index (SI) = CC50/EC50” value is recorded as 12.57. Also, in the data set with HSV-1 [2] (setting [5]), the EC50 was determined as 86.63 ± 0.03 µg/mL (≈ 196 µM). The “Time of compound addition giving the highest inhibition against HSV-1 infection” value with HSV-1 [3] is recorded as at most 2.0 h.

The values are drawn from paper PMC3920720, “Triterpenes and Steroids from Euphorbia denticulata Lam. With Anti-Herpes Symplex Virus Activity” (Iranian Journal of Pharmaceutical Research : IJPR, 2013).
